The subject of assay [1] is anti-EA antibodies in human sera. Kind of assay: ELISA, serological reactivity of human sera with p17 synthetic peptides. Type of assay: binding. The conditions noted are these: for No. Positive/No. Tested / No. Positive/No. Tested (%): sera 1:10. As to the method:
(§1) ELISA. The ELISA for measuring specific antibodies to p17, p50 or to the synthetic peptides was performed as previously described in detail (Luka et al., J. Immunol. Methods, 67:145-156, 1984). Aliquots of different antigen concentrations were diluted in 0.5M Na2CO3 buffer, pH 9.5, added to wells in polystyrene microtiter plates (Linbro) and the plates incubated overnight at 4° C. Following this incubation period, the plates were washed 5× with Tris-HCl, pH 7.4, containing 0.05% Tween 20, 50 mM NaCl and 100 mg per liter albumin (Sigma) and dried for 20 minutes at room temperature. The plates were screened with different anti-EA-R or EA-D antibody positive human sera and the monoclonal antibody to p17 or p50 to identify the optimal concentration of antigen to be used in the serological studies. Alkaline-phosphatase-labelled goat anti-human IgG (Sigma) or goat anti-mouse IgG (Sigma) was used as the indicator system.
For the testing of human sera for antibodies to native p17, p50 or to the synthetic peptides, sera were diluted 1:10 in ELISA buffer, added in 0.1 ml volumes to wells coated with optimal concentrations of antigen and the plates were incubated for 60 minutes at room temperature. After 4 washes with ELISA buffer, 100 μl of alkaline phosphatase-labelled goat anti-human IgG in ELISA buffer were added to each well and the plates were incubated at room temperature for 1 hour. Following four more washes in buffer, the enzyme reaction was performed by dissolving 1 mg per ml of Sigma alkaline phosphatase substrate in 1M diethanolamine buffer, pH 10.4, containing 1 mM MgCl2 and 0.1 mM ZnCl2, and 100 μl of the mixture was then added to each well. The reaction was allowed to proceed for 30 minutes at 37° C. and then the plates were screened directly with a microplate reader, TITERTEK MULTISKAN MC (Flow), at 420 nm. Readings above 0.1 which was 2× the background noted with antibody-negative sera were considered positive reactions.
Studies were designed to determine the serological reactivity with the p17 synthetic epitopes. For this purpose, 87 anti-EA antibody-positive sera (titer>160) were tested in the ELISA against optimal pre-determined concentrations (2 μg per well) of the p17 synthetic peptides. The sera were obtained from 28 patients with African Burkift's lymphoma (ABL) collected during the Ghanian Burkitt Tumor Project, and from 28 North American patients with intermediate large cell, or high grade non-Hodgkin's lymphoma (NANHL). The donors included both HIV-positive and HIV-negative individuals. In addition, sera from 31 North American nasopharyngeal carcinoma (NANPC) patients were examined in this study (Pearson, G. R., et al., Cancer, 51:260-268, 1983). To validate the EA specificity of the serological reactions, the results with these sera were compared with results with 23 VCA and EA antibody-negative sera and 30 VCA-antibody-positive, EA-antibody negative sera. In contrast to the T-cell proliferation results, all three synthetic peptides reacted with the EA antibody-positive sera to varying degrees with p17.1 again being the dominant epitope. Approximately 60% of the anti-EA-positive sera reacted with p17.1, 48% with p17.2 and 23% with p17.3.
Seventy-one percent of the sera from ABL patients and 93% of the sera from patients with NANHL reacted with p17.1 as opposed to 23% of the sera from North American patients with NPC.

Assay [2] deals with anti-EA-R and anti-EA-D sera. Briefly: ELISA, anti-EA-R and anti-EA-D sera against p17.1 and p50.10. Type of assay: binding, human. The conditions noted are these: individual sera, donors Anti-EA-negative (VCA-negative); values >0.2 significant. The method, then: as §1
For the testing of human sera for antibodies to native p17, p50 or to the synthetic peptides, sera were diluted 1:10 in ELISA buffer, added in 0.1 ml volumes to wells coated with optimal concentrations of antigen and the plates were incubated for 60 minutes at room temperature. […] The reaction was allowed to proceed for 30 minutes at 37° C. and then the plates were screened directly with a microplate reader, TITERTEK MULTISKAN MC (Flow), at 420 nm. […]

Where [3] appears, read: serum donors: Lymphoma (total), EA titers >160.
The mark [4] stands for this setting: serum donors: Nasopharyngeal carcinoma (North American), EA titers >160.
The mark [5] stands for this setting: serum donors: Non-Hodgkin's lymphoma (North American), EA titers >160.
The mark [6] stands for this setting: serum donors: Normal (VCA + EA-).

Where “and” joins values, the source holds several entries; their conditions need not be identical. Equal entries are not always repeated.

In the case of “ETFTETWNRFITHTE [p17.1, synthetic peptide from 17 Kd early antigen (EA-R) region of EBV]”, the “share of anti-EA-positive sera that reacted” value in assay [1] (87 anti-EA antibody-positive sera (titer>160), 2 μg peptide per well) is recorded as “Approximately 60%”. Also, the “No. Positive/No. Tested” value in assay [1] (serum donors: Burkitt's lymphoma (African), EA titers >160) was 20/28; in assay [1] (setting [3]), 46/56; in assay [1] (setting [4]), 7/31; in assay [1] (setting [5]), 26/28; in assay [1] (setting [6]) it was 0/30; in assay [1] (serum donors: Normal (VCA − EA-)), 0/23. The “No. Positive/No. Tested (%)” value is listed as 82% in assay [1] (setting [3]), 23% in assay [1] (setting [4]), 93% in assay [1] (setting [5]) and 0% in assay [1] (setting [6]). Also, the “ELISA (420 nm) OD readings” value in assay [2] is 0.024 and 0.071 and 0.027.

(Values after US7988972B2, “Immunoreactive peptides from Epstein-Barr virus” (Ortho-Clinical Diagnostics, Inc., priority 1993, dated 2011).)
